Publication PMC10376059, “New NADPH Oxidase 2 Inhibitors Display Potent Activity against Oxidative Stress by Targeting p22^phox-p47^phox Interactions” (Antioxidants, 2023)

Assays:
HL-60 cells = test: MTT cytotoxicity assay; format: cell-based, human; details: 72 h; for cytotoxicity (in words): 0.01 µM to 100 µM, MTT
Experimental: To verify the cytotoxicity of the acrylonitrile derivatives, the MTT reduction method was performed. Briefly, HL-60 cells were seeded in a flat-bottomed 96-well plate at a density of 10,000 cells per well. […] In a second series of experiments, cells were incubated under the same conditions but for 72 h. Etoposide was used as a positive control. Ten μL of MTT was added at a final concentration of 0.5 mg/mL, incubated at 37 °C for 4 h, and then solubilized with 10% SDS in 0.1 mM HCl and incubated overnight at 37 °C. Finally, a blue-colored compound (formazan) formation was measured at 570 nm in a multiplate reader (StatFax 4200, Awareness Technology, Inc., Palm City, FL, USA). The viability percentage was obtained as follows: Viability % = [treated cells DO × 100]/[DO cells control].

[1] = DPPH radical scavenging activity; format: physicochemical; details: for antioxidant effects in the pharmacological range (in words): up to 50 μM
Experimental: The newly synthesized compounds were evaluated for 2,2-diphenyl-1-picrylhydrazyl […] free radical scavenging activity. The reduction and stabilization of DPPH by antioxidant compounds lead to discoloration, resulting in a decrease in absorbance at 517 nm, which was expressed as a percentage of the radical solution at a given concentration of discoloration. The heteroarylacrylonitrile derivatives were re-suspended in a minimum of DMSO at a final concentration of 5 mg/mL (stock solution). From these, they were diluted to concentrations of 1000, 500, and 100 μg/mL. These solutions were mixed with a methanol solution of DPPH (20 μg/mL) for 5 min. Each compound was evaluated in triplicate; absorbance at 517 nm in a UNICAM UV/visible spectrophotometer Helios-α (Thermo Electron Corporation, Waltham, MA USA) was measured by subtracting the solvent absorbance and comparing the resulting value with that of a blank sample. The percentage of discoloration was established according to the following formula: % Radical removal or discoloration = (1 − (AM − ABM)/AC) × 100, where AM is the absorbance of the sample compound, ABM is the absorbance of the sample blank, and AC is the absorbance of the control. The degree of discoloration indicates the efficacy of the compounds studied as free radical scavengers; therefore, a percentage of discoloration of 100 indicates the maximum radical scavenging capacity and a value close to 0 indicates a zero radical scavenging capacity. Quercetin was used as a reference compound in a concentration range of 1.25 to 7.5 μg/mL.

NADPH oxidase (NOX2) = target: T1, NADPH oxidase (NOX2) (Homo sapiens, UniProt P14598); test: NOX2 activity by cytochrome C reduction in HL-60 membrane preparations; format: biochemical; details: HL-60 membrane homogenates, increasing concentrations
T1 construct: HL-60 cells expressed the components of NOX2, including gp91, p22^phox, p47^phox, and p67^phox; endogenous in cells; whole cells in A1, membrane preparations in A3 and A4
T1 sequence (P14598 1-390): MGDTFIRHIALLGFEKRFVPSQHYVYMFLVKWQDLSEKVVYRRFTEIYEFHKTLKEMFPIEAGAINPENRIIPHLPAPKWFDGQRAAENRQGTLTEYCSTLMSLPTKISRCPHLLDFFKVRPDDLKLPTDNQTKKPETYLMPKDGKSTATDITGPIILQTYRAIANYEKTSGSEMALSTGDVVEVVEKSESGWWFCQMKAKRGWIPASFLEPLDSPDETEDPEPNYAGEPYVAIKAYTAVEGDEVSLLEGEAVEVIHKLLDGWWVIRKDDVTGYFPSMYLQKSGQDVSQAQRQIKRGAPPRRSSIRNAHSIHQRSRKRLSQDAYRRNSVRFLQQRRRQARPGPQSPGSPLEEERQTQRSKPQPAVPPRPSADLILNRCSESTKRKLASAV
Experimental: Neutrophil-differentiated HL-60 cells (2 × 10^6 cells/mL) […], then PMA 0.8 μM was added and incubated for 1 h to induce the activation of the enzyme NADPH oxidase. As a positive inhibition control, VAS2870 (20 μM) was used. Another two controls were performed: one with cells activated by PMA in the presence of DMSO, and the other (NA, non-activated) with cells in the absence of PMA and the acrylonitrile compounds. In 15 mL conical tubes, 5 mL of cell suspension from each treatment and control condition was transferred at 2 × 10^6 cells/mL and centrifuged at 1000 rpm at 4 °C for 10 min. […]
The membrane preparations from the neutrophil-differentiated HL-60 cells, treated with the different indole heteroaryl-acrylonitrile derivatives, were re-suspended in PBS with 10 μL/mL of the protease inhibitor cocktail (in mM): 104 (4-(2-aminoethyl)benzenesulfonylfluoride hydrochloride); 1.4 N-(trans-epoxysuccinyl)-L-leucine-4-guanidinobutyric; 2 leupeptin hemisulfate; 4 bestatin hydrochloride; 1.5 pepstatin A; and 80 μM aprotinin. Total proteins were quantified by the bicinchoninic acid (BCA) method using the commercial kit BCA™ (Thermo Scientific Pierce™, Rockford, IL, USA), using BSA as a standard. […] The reaction was monitored at 550 nm for 30 min at 25 °C using PBS as a blank.

Row | SMILES | cytotoxicity (in words) (HL-60 cells) | cytotoxicity (HL-60 cells; 1 µM (corresponding to the IC50 value)) | antioxidant capacity, DPPH discoloration (in words) [1] | antioxidant effects in the pharmacological range (in words) [1] | superoxide production, cytochrome C reduction (in words) (NADPH oxidase (NOX2)) | antioxidant capacity, DPPH discoloration ([1]; concentration range 30–300 μM)
1 | N#C/C(=C\c1cc(-c2ccccc2)on1)C(=O)c1c[nH]c2ccccc12 [Compound C6] | non-cytotoxic | about 55% | showed antioxidant capacity only at very high concentrations | minimal | reduced superoxide production in a concentration-dependent manner | –
2 | N#C/C(=C\c1ccncc1)C(=O)c1c[nH]c2ccccc12 [Compound C14] | non-cytotoxic | – | showed antioxidant capacity only at very high concentrations | minimal | reduced superoxide production in a concentration-dependent manner | 12%
